Entries after “also recorded” stand apart in the source; their conditions may differ. Structures can show the parent of a compound that is named as a salt. Where two headings read alike, the source gives them in different places. Where a SMILES comes first, the peptide text is derived from it. Bridges are numbered along the chain shown (N, C = ends). [ ]: non-standard residue; d: D form. Orn = NCCC[C@H](N)C(=O)O; Mpa = O=C(O)CCS
Columns and labels:
[1] = Moisture sorption/desorption and relative humidity stability of compound I salts; assay type: physicochemical; details: for Hygroscopicity: moisture balance data, hydrochloride
Procedure: Moisture sorption/desorption (MB) data were collected on a VTI SGA-100 Vapor Sorption Analyzer. Sorption and desorption data were collected over a range of 5% to 95% relative humidity (RH) at 10% RH intervals under a nitrogen purge. Samples were not dried prior to analysis. Equilibrium criteria used for analysis were less than 0.0100% weight change in 5 minutes, with a maximum equilibration time of 3 hours if the weight criterion was not met. Data were not corrected for the initial moisture content of the samples. NaCl and PVP were used as calibration standards.

[2] = system: RU486-induced parturition; assay: RU486-induced preterm parturition in CD-1 mice
Procedure: (§1) Tocolytic effects were assessed by measuring the time from induction to delivery of the first pup for each mouse in the treatment and control cohorts, the time from time from induction to completion of delivery among all mice in each cohort, and viability of offspring among mice in each cohort. The inducers of preterm parturition used in this study were RU486 (also referred to as mifepristone), a steroidal antiprogestin that promotes cervical dilatation and provokes enhanced uterine contractility and sensitivity to prostaglandins, and lipopolysaccharide (LPS), a mediator of inflammation.
(§2) To induce labor at an early gestational age, a single dose of RU486 was administered to each mouse subcutaneously at 2.5 mg/kg (t=0). Mice treated with LPS received a single intraperitoneal injection of LPS at 2 mg/kg (t=0). Atosiban was administered to CD-1 mice by subcutaneous injection at 300 mg/kg at two distinct sites. These injections were performed at 5 hours (t=5) and 29 hours (t=29) following treatment with the inducing agent RU486 or LPS. […] Compound III was administered to CD-1 mice orally at either 10 mg/kg, 30 mg/kg, or 100 mg/kg at 5 hours (t=5), 19 hours (t=19), 29 hours (t=29), and 43 hours (t=43) following treatment with the inducing agent RU486 or LPS. […] The viability of pups delivered in each cohort was assessed by galenic hydrostatic pulmonary docimasy.

LPS-induced parturition = assay type: in vivo; details: LPS-treated mice
Procedure: as §1, §2

[3] = Aqueous solubility of compound I salts (FIG. 8); assay type: physicochemical; details: water
[4] = nifedipine 5 mg/kg oral, compound III 10 mg/kg oral, alone or combined

Compound: CC(C)[C@H](N)C(=O)OCC[C@H](NC(=O)[C@@H]1SCCN1S(=O)(=O)c1ccc(-c2ccccc2)cc1)c1ccc(F)cc1 [Compound III, (3S)-3-({[(2S)-3-(biphenyl-4-ylsulfonyl)-1,3-thiazolidin-2-yl]carbonyl}-amino)-3-(4-fluorophenyl)propyl L-valinate hydrochloride]
- Stability at elevated relative humidity [1]: extended stability at elevated relative humidity
- Weight loss upon desorption [1]: approximately 0.7%
- Deliquescence at approximately 95% RH ([1]; 2 days, approximately 95% RH): did not deliquesce
- Weight gain on sorption ([1]; from 5 to 95% relative humidity): Approximately 0.9%
- Hygroscopicity [1]: low hygroscopicity
- Hygroscopicity ([1]; listed as chloride salt): non-hygroscopic
- Hygroscopicity ([1]; listed as hydrochloride salt): low hygroscopicity; also recorded: non-hygroscopic
- Effect on time to delivery ([2]; RU486-treated mice): increase in time to delivery compared to vehicle
- Time to delivery ([2]; RU486-treated mice, nifedipine 5 mg/kg oral, compound III 100 mg/kg oral, alone or combined): 23.70 ± 0.60 h
- Effect on fractional viability of offspring (LPS-induced parturition): dose-dependent increase in the fractional viability of offspring
- Fractional viability of offspring (LPS-induced parturition; compound III 100 mg/kg oral): 69.41%±15.76%
- Fractional viability of offspring (LPS-induced parturition; [4]): 57.90%±14.89%
- Time to delivery (LPS-induced parturition; [4]): 23.98 ± 0.66 h
- solubility [3]: < 1000 µg/mL

Compound: CC#C[C@]1(O)CC[C@H]2[C@@H]3CCC4=CC(=O)CCC4=C3[C@@H](c3ccc(N(C)C)cc3)C[C@@]21C [RU486, mifepristone]
- Mean delivery time following induction ([2]; RU486 2.5 mg/kg s.c. at gestational age 17 days): 21 ± 1.00 h
- Mice excluded due to death or sacrifice during the study ([2]; female, CD-1, mouse, in vivo, 2.5 mg/kg): 3%
- Pups delivered alive ([2]; inducer alone): 96%

Compound: CCOc1ccc(C[C@H]2NC(=O)CCSSC[C@@H](C(=O)N3CCC[C@H]3C(=O)N[C@@H](CCCN)C(=O)NCC(N)=O)NC(=O)[C@H](CC(N)=O)NC(=O)[C@H]([C@@H](C)O)NC(=O)[C@H]([C@@H](C)CC)NC2=O)cc1 [atosiban, reference compound] ([Mpa][dY](Et)ITNCP[Orn]G-NH2; disulfide 1-6)
- Effect on time to delivery (LPS-induced parturition): increase in time to delivery
- Time to delivery (LPS-induced parturition; atosiban 300 mg/kg s.c., compound III 100 mg/kg oral, alone or combined): 28.41 ± 2.99 h

Compound: COC(=O)C1=C(C)NC(C)=C(C(=O)OC)C1c1ccccc1[N+](=O)[O-] [nifedipine, reference compound]
- Fractional viability of offspring (LPS-induced parturition; [4]): 90.39%±5.34%
